Laboratory results taken from patent publication US20230131899A1, “INHIBITORS OF MICROBIALLY INDUCED AMYLOID” (Axial Therapeutics, Inc., priority 2020, published 2023).
Like-named read-outs stand apart in the source and are kept apart here.

Biological target: T1, human α-synuclein (Homo sapiens, UniProt P37840)
T1 construct: the full-length gene for untagged human α-synuclein was inserted; made in house; host or cells: E. coli BL21(DE3), plasmid derived from pT7 or pET11a
Assay: Cell-free Thioflavin T assay of α-synuclein aggregation (αSyn ThT Assay)
Assay type: biochemical
Details: αSyn 50 μM, compounds at 100 μM
In short: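 Untagged full-length human α-synuclein from E. coli, 50 μM, with 20-40 μM ThT, 1% DMSO, compound at 20-100 μM and a glass bead, 37° C. with shaking. Fluorescence (ex 438/em 495 nm) read hourly to 73 h. Compound-only background subtracted and values normalised to vehicle at 36-72 h or final timepoint, giving % inhibition.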

[1] = mean % inhibition of αSyn aggregation relative to DMSO control, read-out: αSyn ThT Assay % Inhibition
[2] = class symbol, read-out: αSyn ThT Assay % Inhibition (activity range)

CN(C)Cc1c(Cc2cccc3ccccc23)c(-c2cccc(C(F)(F)F)c2)c2n(c1=O)C(C(=O)O)CS2 (stereo not drawn) [Compound 075, 6-((dimethylamino)methyl)-7-(naphthalen-1-ylmethyl)-5-oxo-8-(3-(trifluoromethyl)phenyl)-2,3-dihydro-5H-thiazolo[3,2-a]pyridine-3-carboxylic acid]
inhibition at 100 µM [1]: 2%
inhibition at 100 µM [2]: -10 to 10%

NC(=O)CN1CC(C(=O)O)n2c(c(-c3cccc(C(F)(F)F)c3)c(Cc3cccc4ccccc34)cc2=O)S1(=O)=O (stereo not drawn) [Compound 028, 2-(2-amino-2-oxoethyl)-8-(naphthalen-1-ylmethyl)-6-oxo-9-(3-(trifluoromethyl)phenyl)-3,4-dihydro-2H,6H-pyrido[1,2-e][1,2,5]thiadiazine-4-carboxylic acid 1,1-dioxide]
inhibition at 100 µM [1]: 33%
inhibition at 100 µM [2]: 31 to 60%

O=C(O)C1CN(CCCCCO)S(=O)(=O)c2c(-c3cccc(C(F)(F)F)c3)c(Cc3cccc4ccccc34)c(NC3CCCC3)c(=O)n21 (stereo not drawn) [Compound 122, 7-(cyclopentylamino)-2-(5-hydroxypentyl)-8-(naphthalen-1-ylmethyl)-6-oxo-9-(3-(trifluoromethyl)phenyl)-3,4-dihydro-2H,6H-pyrido[1,2-e][1,2,5]thiadiazine-4-carboxylic acid 1,1-dioxide]
inhibition at 100 µM [1]: 38%
inhibition at 100 µM [2]: 31 to 60%

Nc1c(Cc2cccc3ccccc23)c(-c2cccc(C(F)(F)F)c2)c2n(c1=O)C(C(=O)O)CS2(=O)=O (stereo not drawn) [Compound 023, 6-amino-7-(naphthalen-1-ylmethyl)-5-oxo-8-(3-(trifluoromethyl)phenyl)-2,3-dihydro-5H-thiazolo[3,2-a]pyridine-3-carboxylic acid 1,1-dioxide]
inhibition at 100 µM [1]: 21%
inhibition at 100 µM [2]: 11 to 30%

Nc1c(Cc2cccc3ccccc23)c(-c2cccc(C(F)(F)F)c2)c2n(c1=O)C(C(=O)O)CS2 (racemic) [Compound 020, 6-amino-7-(naphthalen-1-ylmethyl)-5-oxo-8-(3-(trifluoromethyl)phenyl)-2,3-dihydro-5H-thiazolo[3,2-a]pyridine-3-carboxylic acid]
inhibition at 100 µM [1]: 53%
inhibition at 100 µM [2]: 31 to 60%

C=CCCN1CC(C(=O)O)n2c(c(-c3cccc(C(F)(F)F)c3)c(Cc3cccc4ccccc34)cc2=O)S1(=O)=O (stereo not drawn) [Compound 024, 2-(but-3-en-1-yl)-8-(naphthalen-1-ylmethyl)-6-oxo-9-(3-(trifluoromethyl)phenyl)-3,4-dihydro-2H,6H-pyrido[1,2-e][1,2,5]thiadiazine-4-carboxylic acid 1,1-dioxide]
inhibition at 100 µM [1]: 69%
inhibition at 100 µM [2]: > 60%
